≈ marks a conversion by molar mass, not a printed value.
Tests used:
Pichia kudriavzevii = test: Antifungal activity against Candida krusei ATCC 6258 assessed as reduction in fungal growth by NCCLS method; type: functional
Candida albicans [1] = test: Antifungal activity against Candida albicans ATCC 10231 assessed as growth inhibition measured for 24 hrs by CLSI based method; type: functional
Candida albicans [2] = test: Antifungal activity against Candida albicans ATCC 76615 assessed as fungal growth inhibition incubated for 5 to 7 days by NCCLS based assay; type: functional; conditions: time 5-7 day
Trichophyton rubrum [3] = test: Antifungal activity against Trichophyton rubrum 0501124 assessed as inhibition of fungal growth incubated for 24 hrs by broth microdilution method; type: functional
Nannizzia gypsea = test: Antifungal activity against Microsporum gypseum assessed as fungal growth inhibition incubated for 48 hrs by microplate reader assay; type: functional
Trichophyton rubrum [4] = test: Antifungal activity against Trichophyton rubrum assessed as fungal growth inhibition incubated for 5 to 7 days by NCCLS based assay; type: functional; conditions: time 5-7 day
Candida albicans [5] = test: Antifungal activity against Candida albicans SC5314 assessed as reduction in microbial growth incubated for 24 hrs by serial dilution method; type: functional
[Candida] auris = Antifungal activity against Candida auris CBS 12373 assessed as reduction in microbial growth incubated for 24 hrs by serial dilution method; type: functional; conditions: Candidozyma auris
Candida albicans [6] = test: Antifungal activity against Candida albicans ATCC 10231 assessed as growth inhibition measured after 48 hrs by CLSI based method; type: functional, organism-based; conditions: ATCC 10231, 48 h
Candida albicans [7] = test: Antifungal activity against Candida albicans SC5314 assessed as reduction in fungal growth incubated for 24 hrs by serial dilution method; type: functional
Cytochrome P450 3A4 = Cytochrome P450 3A4 (Homo sapiens, UniProt P08684); test: Inhibition of CYP3A4 (unknown origin); type: ADME
Sequence of Cytochrome P450 3A4 (P08684 whole entry): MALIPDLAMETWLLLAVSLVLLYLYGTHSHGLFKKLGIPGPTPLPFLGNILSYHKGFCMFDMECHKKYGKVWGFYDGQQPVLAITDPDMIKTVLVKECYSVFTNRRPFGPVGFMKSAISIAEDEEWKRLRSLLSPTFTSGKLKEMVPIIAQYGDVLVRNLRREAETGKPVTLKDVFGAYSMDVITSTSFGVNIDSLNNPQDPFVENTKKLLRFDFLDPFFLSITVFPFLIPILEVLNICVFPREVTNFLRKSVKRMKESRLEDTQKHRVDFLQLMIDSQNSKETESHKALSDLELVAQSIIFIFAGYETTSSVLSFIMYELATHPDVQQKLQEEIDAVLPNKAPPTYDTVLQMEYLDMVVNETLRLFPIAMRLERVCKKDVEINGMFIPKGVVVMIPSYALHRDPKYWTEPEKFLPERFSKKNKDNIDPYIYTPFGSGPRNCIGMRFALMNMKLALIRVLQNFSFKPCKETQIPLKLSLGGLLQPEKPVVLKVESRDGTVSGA

Candida albicans [8] = test: Antifungal activity against Candida albicans assessed as reduction in microbial growth; type: functional
Aspergillus fumigatus = test: Antifungal activity against Aspergillus fumigatus CGMCC3 7795 assessed as reduction in fungal growth incubated for 48 hrs by CLSI based microdilution analysis; type: functional
Candida albicans [9] = test: Antifungal activity against Candida albicans assessed as reduction in fungal growth incubated for 24 hrs by broth microdilution method; type: functional, organism-based
Candida albicans [10] = test: Antimicrobial activity against Candida albicans 90028 assessed as microbial growth inhibition by broth microdilution method; type: functional
Candida albicans [11] = test: Antifungal activity against Candida albicans ATCC 96901; type: functional
Nakaseomyces glabratus = test: Antifungal activity against Candida glabrata ATCC 15126 assessed as reduction in fungal growth incubated for 24 hrs by CLSI based microdilution analysis; type: functional

SMILES: CC(C)Cc1ccc([C@H](C)C(=O)NC[C@](O)(Cn2cncn2)c2ccc(F)cc2F)cc1
- MIC80 (Pichia kudriavzevii): 0.003 µg/mL (≈ 0.00678 µM)

SMILES: Cc1ccccc1[Se]C(Cn1ccnc1)c1ccc(Cl)cc1 (centres undefined)
- MIC (Candida albicans [1]): 0.03 µg/mL (≈ 0.0798 µM)

SMILES: C[C@H](NC(=O)c1ccc2c(c1)OCCO2)C(=O)NCc1ccncc1
- MIC (Candida albicans [2]): 0.125 µg/mL (≈ 0.366 µM)

SMILES: O=c1n(-c2ccc(C(F)(F)C(O)(Cn3cnnn3)c3ccc(F)cc3F)nc2)cnn1C1CCCCC1 (centres undefined)
- MIC50 (Trichophyton rubrum [3]): 2 µg/mL (≈ 3.86 µM)
- MIC80 (Nannizzia gypsea): 4 µg/mL (≈ 7.71 µM)
- MIC80 (Trichophyton rubrum [4]): 2 µg/mL (≈ 3.86 µM)

SMILES: O[C@@](Cn1cnnn1)(c1ccc(F)cc1F)C(F)(F)c1ccc(-c2ccc(OC(F)(F)F)cc2)cn1
- MIC50 (Candida albicans [5]): ≤ 0.001 µg/mL

SMILES: CC(C)(C)c1ccc(-c2nnc(Nc3ccc(Cl)cc3)o2)cc1
- MIC50 ([Candida] auris): 0.8 µg/mL
- IC50 (Candida albicans [6]): 0.9 µg/mL (≈ 2.75 µM)
- MIC50 (Candida albicans [7]): 0.5 µg/mL (≈ 1.53 µM)
- IC50 (Cytochrome P450 3A4): 30.5 µM

SMILES: CC(C)[C@H](NC(=O)c1ccc2c(c1)OCCO2)C(=O)NCc1cccnc1
- MIC (Candida albicans [2]): 0.125 µg/mL (≈ 0.338 µM)

SMILES: Clc1ccc(C(Cn2ccnc2)[Se]Cc2ccccc2Cl)c(Cl)c1 (centres undefined)
- MIC (Candida albicans [1]): 0.01 µg/mL (≈ 0.0225 µM)

SMILES: CC(C)(C)Cn1ncn(-c2ccc(C(F)(F)C(O)(Cn3cnnn3)c3ccc(F)cc3F)nc2)c1=O (centres undefined)
- MIC50 (Trichophyton rubrum [3]): 2 µg/mL (≈ 3.95 µM)
- MIC80 (Nannizzia gypsea): 4 µg/mL (≈ 7.9 µM)
- MIC80 (Trichophyton rubrum [4]): 2 µg/mL (≈ 3.95 µM)

SMILES: N#Cc1ccc(COc2ccc(C#Cc3ccc(C(F)(F)[C@](O)(Cn4cnnn4)c4ccc(F)cc4F)nc3)cc2)cc1 [VT-1598]
- MIC50 (Candida albicans [8]): 0.007 µg/mL
- MIC50 (Aspergillus fumigatus): 0.25 µg/mL (≈ 0.428 µM)

SMILES: Clc1ccc(C(Cn2ccnc2)[Se]C(Cn2ccnc2)c2ccc(Cl)cc2)cc1 (centres undefined)
- MIC (Candida albicans [8]): 2 µg/mL

SMILES: C[C@H](C(=O)NC[C@](O)(Cn1cncn1)c1ccc(F)cc1F)c1ccc(-c2ccccc2)c(F)c1
- MIC80 (Pichia kudriavzevii): 0.007 µg/mL (≈ 0.0146 µM)

SMILES: O=C(N[C@@H](Cn1ccnc1)C(=O)NCc1ccccc1)c1ccc2ccccc2c1
- MIC (Candida albicans [2]): 0.25 µg/mL (≈ 0.627 µM)

SMILES: Cc1cccc(C)c1[Se]C(Cn1ccnc1)c1ccc(Cl)cc1 (centres undefined)
- MIC (Candida albicans [8]): 0.03 µg/mL

SMILES: O=c1n(-c2ccc(C(F)(F)C(O)(Cn3cnnn3)c3ccc(F)cc3F)nc2)cnn1C1CCCC1 (centres undefined)
- MIC80 (Trichophyton rubrum [4]): 0.125 µg/mL (≈ 0.248 µM)

SMILES: CCC/C=C/C=C/C=C(\C)[C@@H]1OC[C@H](C)[C@H](OC)[C@H]1OC(=O)CN
- IC50 (Candida albicans [9]): 0.47 µM

SMILES: Cc1cccc(C)c1[Se]C(Cn1ccnc1)c1ccc(F)cc1 (centres undefined)
- MIC (Candida albicans [1]): 0.03 µg/mL (≈ 0.0804 µM)

SMILES: CC(C)[C@@H](C)/C=C/[C@@H](C)[C@H]1CC[C@H]2C3=CC=C4C[C@@H](O)CC[C@]4(C)[C@H]3CC[C@]12C [ERGOSTEROL]
- MIC90 (Candida albicans [10]): 512 µg/mL (≈ 1290 µM)

SMILES: OC(Cn1cnnn1)(c1ccc(F)cc1F)C(F)(F)c1ccc(C#Cc2ccc(F)cc2)cn1 (centres undefined)
- MIC50 (Trichophyton rubrum [3]): > 64 µg/mL

SMILES: C[C@H](NC(=O)c1ccc2ccccc2n1)C(=O)NCc1ccncc1
- MIC (Candida albicans [2]): 0.125 µg/mL (≈ 0.374 µM)

SMILES: Clc1ccc(C(Cn2ccnc2)[Se][Se]C(Cn2ccnc2)c2ccc(Cl)cc2Cl)c(Cl)c1 (centres undefined)
- MIC (Candida albicans [11]): 0.25 µg/mL (≈ 0.392 µM)

SMILES: O=C(CNC(=O)c1ccc2ccccc2n1)NCc1ccncc1
- MIC (Candida albicans [2]): 0.125 µg/mL (≈ 0.39 µM)

SMILES: O=C(O)c1cc(O)c(O)c(O)c1 [GALLIC ACID]
- MIC (Nakaseomyces glabratus): 12.5 µg/mL (≈ 73.5 µM)

SMILES: Fc1ccc([Se]C(Cn2ccnc2)c2ccc(F)cc2F)cc1 (centres undefined)
- MIC (Candida albicans [1]): 0.02 µg/mL (≈ 0.0525 µM)

SMILES: N#Cc1ccc(COc2ccc(C#Cc3ccc(C(F)(F)C(O)(Cn4cnnn4)c4ccc(F)cc4F)nc3)cc2)cc1 (centres undefined)
- MIC50 (Trichophyton rubrum [3]): 8 µg/mL (≈ 13.7 µM)
- MIC50 (Candida albicans [8]): 0.031 µg/mL
